Assay results from patent publication US6727264B1 (Synaptic Pharmaceutical Corporation, priority 2001, dated 2004).

These compounds were tested against rat MCH-1 (Rattus norvegicus, UniProt P97639) (assay: Radioligand binding assay at cloned rat MCH1 receptor ([3H] Compound A)). Conditions: cloned rat MCH1 receptor, membranes from Peakr293 cells, 0.08 nM [3H] Compound A; read-out: Ki (nM) rMCH1.
Sequence of rat MCH-1 (P97639 whole entry): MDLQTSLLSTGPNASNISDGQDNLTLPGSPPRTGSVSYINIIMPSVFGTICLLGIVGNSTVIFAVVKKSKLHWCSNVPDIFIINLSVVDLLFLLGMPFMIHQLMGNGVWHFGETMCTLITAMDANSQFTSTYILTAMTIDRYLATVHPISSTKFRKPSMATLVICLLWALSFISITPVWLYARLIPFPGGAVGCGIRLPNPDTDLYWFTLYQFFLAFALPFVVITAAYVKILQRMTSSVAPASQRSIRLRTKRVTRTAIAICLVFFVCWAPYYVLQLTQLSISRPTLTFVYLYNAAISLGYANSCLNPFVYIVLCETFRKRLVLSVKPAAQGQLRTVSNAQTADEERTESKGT
Set-up: host or cells: Peak rapid 293 (Peakr293) cells, transient calcium phosphate transfection, membranes
`CC(C)C(=O)Nc1cccc(C2CCN(CCc3c(-c4ccccc4)[nH]c4c3ccc3ccccc34)CC2)c1` [Example 387] showed a Ki of 19.7 nM. Work on `CC(C)C(=O)Nc1cccc(C2CCN(CC[C@H](NC(=O)c3cccnc3Oc3ccccc3)c3ccccc3)CC2)c1` [Example 315] yielded a Ki of 11.4 nM. With `CC(C)C(=O)Nc1cccc(C2CCN(Cc3cccc(Oc4cc(Cl)cc(Cl)c4)c3)CC2)c1` [Example 207, N-(3-{1-[3-(3,5-dichlorophenoxy)benzyl]-4-piperidinyl}phenyl)-2-methylpropanamide] the Ki was 137 nM. `CC(C)C(=O)Nc1cccc(C2CCN(CCC(O)c3ccc(F)cc3)CC2)c1` (centres unmarked) [Example 127] showed a Ki of 168 nM. For `CC(=O)c1cccc(OCCCCCN2CCC(c3cccc(NC(=O)C(C)C)c3)CC2)c1` [Example 381], the Ki was 235 nM. For `CC(C)C(=O)Nc1cccc(C2CCN(Cc3c[nH]c(-c4ccccc4)n3)CC2)c1` [Example 203], the Ki was 79.6 nM. `COc1ccccc1C(=O)N[C@@H](CCN1CCC(c2cccc(NC(=O)C(C)C)c2)CC1)c1ccccc1` [Example 310] gave a Ki of 152 nM. `CC(C)C(=O)Nc1cccc(C2CCN(CCC(Oc3ccc(Br)cc3)c3ccc(F)cc3)CC2)c1` (centres unmarked) [Example 135] gave a Ki of 10.9 nM. Work on `CC(C)C(=O)Nc1cccc(C2CCN(Cc3ccc4ccccc4n3)CC2)c1` [Example 255] yielded a Ki of 590 nM. `CCOC(=O)c1cc(-c2ccc(Cl)cc2)oc1CN1CCC(c2cccc(NC(=O)C(C)C)c2)CC1` [Example 222, ETHYL 5-(4-CHLOROPHENYL)-2-({4-[3-(ISOBUTYRYLAMINO)PHENYL]-1-PIPERIDINYL}METHYL)-3-FUROATE] showed a Ki of 152 nM. Work on `CC(C)C(=O)Nc1cccc(C2CCN(CC[C@H](NC(=O)c3ccc(N(C)C)cc3)c3ccccc3)CC2)c1` [Example 322] yielded a Ki of 99.9 nM. `CC(C)C(=O)Nc1ccccc1C1CCN(CCCC(c2ccc(F)cc2)c2ccc(F)cc2)CC1` [Example 276] gave a Ki of 734 nM. `COc1ccc2[nH]cc(CN3CCC(c4cccc(NC(=O)C(C)C)c4)CC3)c2c1` [Example 449] gave a Ki of 623 nM. `CC(C)C(=O)Nc1cccc(C2CCN(CCCCC3OCCO3)CC2)c1` [Example 380] gave a Ki of 309 nM. For `CC(C)C(=O)Nc1cccc(C2CCN(CC[C@H](NC(=O)c3cc(Cl)cc(Cl)c3)c3ccccc3)CC2)c1` [Example 306], the Ki was 168 nM. `O=C(Nc1cccc(C2CCN(CC[C@@H](O)c3ccccc3)CC2)c1)C1CC1` [Example 278] was tested, and the Ki was 85.8 nM. With `CC(C)C(=O)Nc1cccc(C2CCN(CCC(Oc3ccc(Br)cc3)c3ccc4c(c3)CCC4)CC2)c1` (centres unmarked) [Example 165, N-(3-{1-[3-(4- BROMOPHENOXY)-3-(2,3-DIHYDRO-1H-INDEN-5-YL)PROPYL]-4-PIPERIDINYL}PHENYL)-2-METHYLPROPANAMIDE] the Ki was 6.2 nM. `CCCc1nn(-c2ccccc2)cc1C(=O)N[C@@H](CCN1CCC(c2cccc(NC(=O)C(C)C)c2)CC1)c1ccccc1` [Example 321] was tested, and the Ki was 50.9 nM. With `CC(C)C(=O)Nc1cccc(C2CCN(Cc3ccc(-n4ccnc4)cc3)CC2)c1` [Example 256] the Ki was 321 nM. Compound `CC(C)C(=O)Nc1cccc(C2CCN(CCC(Oc3ccc(F)c(F)c3)c3ccc(F)cc3)CC2)c1` (centres unmarked) [Example 134] has a Ki of 36.6 nM.

Same assay, conditions: cloned rat MCH1 receptor; 0.08 nM [3H] Compound A; Peakr293 cell membranes; read-out: Ki (nM) rMCH1
`CC(C)C(=O)Nc1cccc(C2CCN(CCCc3c(-c4cccc(F)c4)n(-c4ccccc4)c4ccccc34)CC2)c1` [Example 702] was tested, and the Ki was 27 nM. For `CC(C)C(=O)Nc1cccc(C2CCN(CCCc3c(-c4ccc(Br)cc4)[nH]c4ccc(OC(F)(F)F)cc34)CC2)c1` [Example 754], the Ki was 49.2 nM. `CCn1c(-c2ccc(Cl)cc2)c(CN2CCC(c3cccc(NC(=O)C(C)C)c3)CC2)c2ccccc21` [Example 434] was tested, and the Ki was 214 nM. Compound `CC(C)C(=O)Nc1cccc(C2CCN(CCCCC(O)c3ccc(F)cc3)CC2)c1` (centres unmarked) [Example 811] has a Ki of 191 nM. Compound `CC(C)C(=O)Nc1cccc(C2CCN(CCCc3c(-c4ccccc4F)[nH]c4ccccc34)CC2)c1` [Example 693] has a Ki of 0.4 nM. For `COc1cc2[nH]cc(CN3CCC(c4cccc(NC(=O)C(C)C)c4)CC3)c2cc1OC` [Example 440], the Ki was 107 nM. In the case of `CC(C)C(=O)Nc1cccc(C2CCN(Cc3c[nH]c4cc(-c5ccccc5F)ccc34)CC2)c1` [Example 525], the Ki is reported as 91.4 nM. Compound `CC1=C(C(=O)NCCCN2CCC(c3cccc(NC(=O)C(C)C)c3)CC2)C(c2ccc(F)c(F)c2)CC(=O)N1` (centres unmarked) [Example 795] has a Ki of 51.1 nM. `CCCC(=O)Nc1ccc(C2CCN(CCCCCn3ccc4ccccc43)CC2)cc1` [Example 826] was tested, and the Ki was 786 nM. `CC(C)C(=O)Nc1cccc(C2CCN(CCCc3c(-c4ccc(F)cc4)[nH]c4c3ccc3ccccc34)CC2)c1` [Example 714] was tested, and the Ki was 4.7 nM. In the case of `CC(=O)c1ccccc1OC(CCCCN1CCC(c2cccc(NC(=O)C(C)C)c2)CC1)c1ccccc1` (centres unmarked) [Example 938], the Ki is reported as 609 nM. `Cc1cccc(-n2ccc3cc(CN4CCC(c5cccc(NC(=O)C(C)C)c5)CC4)ccc32)c1` [Example 835] was tested, and the Ki was 21.3 nM. `COc1ccc(-n2ccc3cc(CN4CCC(c5cccc(NC(=O)C(C)C)c5)CC4)ccc32)cc1` [Example 833] showed a Ki of 27.5 nM. For `CCC(=O)Nc1cccc(C2CCN(Cc3c[nH]c4c([N+](=O)[O-])cccc34)CC2)c1` [Example 515], the Ki was 296 nM. For `CC(C)C(=O)Nc1cccc(C2CCN(CCCCCCC(=O)c3ccccc3)CC2)c1` [Example 528], the Ki was 115 nM. `O=C(Nc1cccc(C2CCN(Cc3cn(-c4ccccc4F)c4cc(Cl)ccc34)CC2)c1)C1CC1` [Example 473] was tested, and the Ki was 11.3 nM. In the case of `CC(C)C(=O)Nc1cccc(C2CCN(CCCCCSc3ccccc3)CC2)c1` [Example 586], the Ki is reported as 42.9 nM. With `COc1ccc2[nH]cc(CN3CCC(c4cccc(NC(=O)C(C)C)c4)CC3)c2c1` [Example 449] the Ki was 623 nM. For `CC(C)C(=O)Nc1cccc(C2CCN(Cc3cccc4c3ccn4-c3ccccc3F)CC2)c1` [Example 871], the Ki was 252 nM. `CCC(=O)Nc1cccc(C2CCN(CCCCC(=O)c3ccc([N+](=O)[O-])cc3)CC2)c1` [Example 556] gave a Ki of 35.6 nM. Compound `CC(C)C(=O)Nc1cccc(C2CCN(CCCc3c(-c4ccc(F)cc4)n(C)c4ccccc34)CC2)c1` [Example 700] has a Ki of 2 nM. Compound `COc1ccc2[nH]c(C)c(CN3CCC(c4cccc(NC(=O)C(C)C)c4)CC3)c2c1` [Example 427] has a Ki of 248 nM. Compound `CC(C)C(=O)Nc1cccc(C2CCN(Cc3ccc4c(ccn4-c4ccccc4Cl)c3)CC2)c1` [Example 849] has a Ki of 9.4 nM. Work on `CC(C)C(=O)Nc1cccc(C2CCN(CCCCCC(=O)c3ccccc3)CC2)c1` [Example 529] yielded a Ki of 42.4 nM. `CC(C)C(=O)Nc1cccc(C2CCN(CCCc3ccccc3)CC2)c1` [Example 804] was tested, and the Ki was 89.2 nM. `Cc1ccc2[nH]c(-c3ccccc3I)c(CCCN3CCC(c4cccc(NC(=O)C(C)C)c4)CC3)c2c1` [Example 787] gave a Ki of 21.6 nM. For `CC(C)C(=O)Nc1cccc(C2CCN(Cc3cccc4c3ccn4-c3ccccn3)CC2)c1` [Example 870], the Ki was 167 nM. Compound `CC(C)C(=O)Nc1cccc(C2CCN(CCCSc3ccccc3)CC2)c1` [Example 581] has a Ki of 86.4 nM. `CC(C)C(=O)Nc1cccc(C2CCN(CCCC(=O)c3ccc(F)cc3)CC2)c1` [Example 941] was tested, and the Ki was 15.2 nM. Compound `CC(C)C(=O)Nc1cccc(C2CCN(Cc3cn(-c4ccccc4F)c4cc(Cl)ccc34)CC2)c1` [Example 474] has a Ki of 13.3 nM. `COc1ccc(OC(CCCCCN2CCC(c3cccc(NC(=O)C(C)C)c3)CC2)c2ccccc2)cc1` (centres unmarked) [Example 898] gave a Ki of 33.7 nM. In the case of `O=C(CCCN1CCC(c2cccc(NC(=O)C3CC3)c2)CC1)c1ccc(Oc2ccccc2)cc1` [Example 539], the Ki is reported as 268 nM. Work on `CC(C)C(=O)Nc1cccc(C2CCN(Cc3cccc4c3ccn4-c3cc(Cl)cc(Cl)c3)CC2)c1` [Example 863] yielded a Ki of 269 nM.
